# In patent publication US10696615B2, “Prenylated hydroxystilbenes” (The University of Sydney, priority 2011, dated 2020):
# How the values were obtained:
# Format in all cases: cell-based, human
# [1] = tested on: CCRF-CEM; assay: NCI in vitro cancer screen, Leukemia; settings: for GI50 / CC50: Homo sapiens; for CC50: read-out: LC50 (the source's name)
# [2] = tested on: K-562; assay: NCI in vitro cancer screen, Leukemia; settings: K-562; for GI50 / CC50: Homo sapiens, K562; for CC50: read-out: LC50 (the source's name)
# [3] = tested on: SR; assay: NCI in vitro cancer screen, Leukemia
# [4] = tested on: HOP-62; assay: NCI in vitro cancer screen, Non-Small Cell Lung Cancer; settings: HOP-62; for GI50 / CC50: Homo sapiens; for CC50: read-out: LC50 (the source's name)
# [5] = tested on: NCI-H226; assay: as above; settings: NCI-H226
# [6] = tested on: NCI-H23; assay: as above; settings: NCI-H23
# [7] = tested on: NCI-H460; assay: as above; settings: NCI-H460; for GI50 / CC50: Homo sapiens; for CC50: read-out: LC50 (the source's name)
# [8] = tested on: HCC-2998; assay: NCI in vitro cancer screen, Colon Cancer; settings: HCC-2998; for GI50 / CC50: Homo sapiens; for CC50: read-out: LC50 (the source's name)
# [9] = tested on: HCT-116; assay: NCI in vitro cancer screen, Colon Cancer; settings: HCT-116
# [10] = tested on: SW-620; assay: NCI in vitro cancer screen, Colon Cancer; settings: SW-620; for GI50 / CC50: Homo sapiens; for CC50: read-out: LC50 (the source's name)
# [11] = tested on: SF-295; assay: NCI in vitro cancer screen, CNS Cancer; settings: SF-295; for GI50 / CC50: Homo sapiens; for CC50: read-out: LC50 (the source's name)
# [12] = tested on: SNB-19; assay: NCI in vitro cancer screen, CNS Cancer; settings: SNB-19; for GI50 / CC50: Homo sapiens; for CC50: read-out: LC50 (the source's name)
# [13] = tested on: U251; assay: NCI in vitro cancer screen, CNS Cancer; settings: U251; for GI50 / CC50: Homo sapiens, U-251; for CC50: read-out: LC50 (the source's name)
# [14] = tested on: MALME-3M; assay: NCI in vitro cancer screen, Melanoma; settings: for GI50 / CC50: Homo sapiens, Malme-3M; for CC50: read-out: LC50 (the source's name); for TGI: MALME-3M
# [15] = tested on: MDA-MB-435; assay: NCI in vitro cancer screen, Melanoma; settings: MDA-MB-435; for GI50 / CC50: Homo sapiens; for CC50: read-out: LC50 (the source's name)
# [16] = tested on: SK-MEL-5; assay: NCI in vitro cancer screen, Melanoma; settings: SK-MEL-5; for GI50 / CC50: Homo sapiens; for CC50: read-out: LC50 (the source's name)
# [17] = tested on: UACC-62; assay: NCI in vitro cancer screen, Melanoma; settings: UACC-62; for GI50 / CC50: Homo sapiens; for CC50: read-out: LC50 (the source's name)
# [18] = tested on: IGROV1; assay: NCI in vitro cancer screen, Ovarian Cancer; settings: IGROV1; for GI50 / CC50: Homo sapiens, IGROV-1; for CC50: read-out: LC50 (the source's name)
# [19] = tested on: OVCAR-3; assay: NCI in vitro cancer screen, Ovarian Cancer; settings: OVCAR-3; for GI50 / CC50: Homo sapiens; for CC50: read-out: LC50 (the source's name)
# [20] = tested on: ADR-RES (NCI/ADR-RES); assay: NCI in vitro cancer screen, Ovarian Cancer; settings: for TGI: ADR-RES; for GI50 / CC50: Homo sapiens, NCI/ADR-RES; for CC50: read-out: LC50 (the source's name)
# [21] = tested on: SK-OV-3; assay: NCI in vitro cancer screen, Ovarian Cancer; settings: SK-OV-3; for GI50 / CC50: Homo sapiens; for CC50: read-out: LC50 (the source's name)
# [22] = tested on: 786-0; assay: NCI in vitro cancer screen, Renal Cancer; settings: 786-0
# [23] = tested on: ACHN; assay: NCI in vitro cancer screen, Renal Cancer; settings: for GI50 / CC50: Homo sapiens; for CC50: read-out: LC50 (the source's name)
# [24] = tested on: CAKI-1; assay: NCI in vitro cancer screen, Renal Cancer; settings: CAKI-1; for GI50 / CC50: Homo sapiens; for CC50: read-out: LC50 (the source's name)
# [25] = tested on: TK-10; assay: NCI in vitro cancer screen, Renal Cancer; settings: TK-10
# [26] = tested on: DU-145; assay: NCI in vitro cancer screen, Prostate Cancer; settings: DU-145; for GI50 / CC50: Homo sapiens; for CC50: read-out: LC50 (the source's name)
# [27] = tested on: HS 578T; assay: NCI in vitro cancer screen, Breast Cancer; settings: for GI50 / CC50: Homo sapiens; for CC50: read-out: LC50 (the source's name)
# [28] = tested on: MDA-MB-468; assay: NCI in vitro cancer screen, Breast Cancer; settings: MDA-MB-468; for GI50 / CC50: Homo sapiens; for CC50: read-out: LC50 (the source's name)
smiles,measurement,setting,value
"COc1cc(/C=C/c2cc(O)cc(OCC=C(C)C)c2)ccc1O [USYDS2, (E)-3-(3-methyl-2-butenyloxy)-4′,5-dihydroxy-3′-methoxystilbene]",TGI,[1],>100 µM
same,GI50,[1],5.06 µM
same,CC50,[1],> 100 µM
same,GI50,[2],0.48 µM
same,CC50,[2],> 100 µM
same,TGI,[2],>100 µM
same,TGI,[3],>100 µM
same,GI50,[3]; Homo sapiens,0.54 µM
same,CC50,"[3]; Homo sapiens, read-out: LC50 (the source's name)",> 100 µM
same,TGI,[4],18.5 µM
same,GI50,[4],4.44 µM
same,CC50,[4],43.4 µM
same,GI50,[5]; Homo sapiens,5.43 µM
same,LC50 (50% lethal concentration),[5]; Homo sapiens,46.4 µM
same,TGI,[5],19.1 µM
same,GI50,[6]; Homo sapiens,2.89 µM
same,LC50,[6]; Homo sapiens,> 100 µM
same,TGI,[6],23.6 µM
same,GI50,[7],2.47 µM
same,CC50,[7],58.7 µM
same,TGI,[7],10.9 µM
same,TGI,[8],17.3 µM
same,GI50,[8],4.61 µM
same,CC50,[8],46.4 µM
same,TGI,[9],11.9 µM
same,GI50,[9]; Homo sapiens,2.09 µM
same,LC50 (concentration killing 50% of cells),[9]; Homo sapiens,40 µM
same,GI50,[10],0.53 µM
same,CC50,[10],40.7 µM
same,TGI,[10],14.0 µM
same,GI50,[11],3.94 µM
same,CC50,[11],49.2 µM
same,TGI,[11],14.7 µM
same,GI50,[12],5.02 µM
same,CC50,[12],53.6 µM
same,TGI,[12],20.4 µM
same,GI50,[13],2.96 µM
same,CC50,[13],41 µM
same,TGI,[13],14.7 µM
same,GI50,[14],1.88 µM
same,CC50,[14],94.9 µM
same,TGI,[14],26.2 µM
same,GI50,[15],0.34 µM
same,CC50,[15],41.3 µM
same,TGI,[15],11.0 µM
same,GI50,[16],1.58 µM
same,CC50,[16],34.3 µM
same,TGI,[16],11.5 µM
same,GI50,[17],3.73 µM
same,CC50,[17],44.6 µM
same,TGI,[17],15.9 µM
same,GI50,[18],5.84 µM
same,CC50,[18],> 100 µM
same,TGI,[18],46.7 µM
same,GI50,[19],3.02 µM
same,CC50,[19],36.1 µM
same,TGI,[19],10.7 µM
same,TGI,[20],4.95 µM
same,GI50,[20],0.4 µM
same,CC50,[20],> 100 µM
same,GI50,[21],3.69 µM
same,CC50,[21],38.9 µM
same,TGI,[21],14.9 µM
same,TGI,[22],15.9 µM
same,GI50,[22]; Homo sapiens,3.55 µM
same,LC50 (50% net cell kill),[22]; Homo sapiens,98.8 µM
same,TGI,[23],17.5 µM
same,GI50,[23],3.76 µM
same,CC50,[23],52.1 µM
same,TGI,[24],>100 µM
same,GI50,[24],6.13 µM
same,CC50,[24],> 100 µM
same,GI50,[25]; Homo sapiens,4.69 µM
same,LC50,[25]; Homo sapiens,40.1 µM
same,TGI,[25],14.3 µM
same,TGI,[26],12.5 µM
same,GI50,[26],3.05 µM
same,CC50,[26],37.8 µM
same,TGI,[27],10.3 µM
same,GI50,[27],1.28 µM
same,CC50,[27],> 100 µM
same,GI50,[28],2.72 µM
same,CC50,[28],36.8 µM
same,TGI,[28],9.41 µM
"CC(C)=CCc1c(O)cc(/C=C/c2ccc(O)cc2)c(CC=C(C)C)c1O [USYDS6, (E)-2,4-di(3-methyl-2-buten-1-yl)-3,4′,5-trihydroxystilbene]",TGI,[1],9.17 µM
same,GI50,[1],2.96 µM
same,CC50,[1],82.1 µM
same,GI50,[2],1.46 µM
same,CC50,[2],22.6 µM
same,TGI,[2],4.13 µM
same,TGI,[4],17.5 µM
same,GI50,[4],5.11 µM
same,CC50,[4],44 µM
same,GI50,[5]; Homo sapiens,1.47 µM
same,TGI,[5],30.1 µM
same,GI50,[6]; Homo sapiens,3.38 µM
same,TGI,[6],15.7 µM
same,GI50,[7],1.89 µM
same,CC50,[7],8.06 µM
same,TGI,[7],3.90 µM
same,TGI,[8],8.78 µM
same,GI50,[8],2.81 µM
same,CC50,[8],32.2 µM
same,TGI,[9],3.78 µM
same,GI50,[9]; Homo sapiens,1.89 µM
same,GI50,[10],1.84 µM
same,CC50,[10],6.82 µM
same,TGI,[10],3.54 µM
same,GI50,[11],6.78 µM
same,CC50,[11],53.2 µM
same,TGI,[11],20.8 µM
same,GI50,[12],6.38 µM
same,CC50,[12],52.7 µM
same,TGI,[12],20.6 µM
same,GI50,[13],2.33 µM
same,CC50,[13],16.7 µM
same,TGI,[13],5.31 µM
same,GI50,[14],2.8 µM
same,CC50,[14],37.1 µM
same,TGI,[14],8.56 µM
same,GI50,[15],3.37 µM
same,CC50,[15],42.1 µM
same,TGI,[15],10.8 µM
same,GI50,[16],2.29 µM
same,CC50,[16],22.1 µM
same,TGI,[16],6.17 µM
same,GI50,[17],10.3 µM
same,CC50,[17],53.8 µM
same,TGI,[17],23.5 µM
same,GI50,[18],5.23 µM
same,CC50,[18],54.1 µM
same,TGI,[18],17.7 µM
same,GI50,[19],2.1 µM
same,CC50,[19],8.85 µM
same,TGI,[19],4.31 µM
same,TGI,[20],15.2 µM
same,GI50,[20],3.46 µM
same,CC50,[20],51.2 µM
same,GI50,[21],13.9 µM
same,CC50,[21],53.2 µM
same,TGI,[21],27.1 µM
same,TGI,[22],6.96 µM
same,GI50,[22]; Homo sapiens,2.46 µM
same,TGI,[23],14.6 µM
same,GI50,[23],3.94 µM
same,CC50,[23],50.4 µM
same,TGI,[24],22.6 µM
same,GI50,[24],8.37 µM
same,CC50,[24],55.7 µM
same,GI50,[25]; Homo sapiens,3.36 µM
same,TGI,[25],9.33 µM
same,TGI,[26],12.9 µM
same,GI50,[26],3.47 µM
same,CC50,[26],40.1 µM
same,TGI,[27],5.29 µM
same,GI50,[27],1.67 µM
same,CC50,[27],35.8 µM
same,GI50,[28],2.3 µM
same,CC50,[28],26 µM
same,TGI,[28],6.39 µM
